From patent US10106544B2, “1,2-dihydro-3H-pyrrolo[1,2-C]imidazol-3-one derivatives and their use as antibacterial agents” (priority 2014, dated 2018)
≈ marks a conversion by molar mass, not a printed value.

Experiments:
Test in all cases: Bacterial growth minimal inhibitory concentration (microdilution, cation-adjusted Mueller-Hinton Broth)
Assay type in all cases: cell-based
P. aeruginosa ATCC27853 = conditions: for MIC: Pseudomonas aeruginosa, ATCC27853, quinolone-sensitive strain, read-out: MIC for P. aeruginosa ATCC27853
How it was run: (§1)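 Broth microdilution in cation-adjusted Mueller-Hinton Broth per CLSI M7-A7, MIC in mg/L. K. pneumoniae A-651 is multiply resistant, including to quinolones. E. coli ATCC25922 and P. aeruginosa ATCC27853 are quinolone-sensitive.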

K. pneumoniae A-651 = conditions: multiply-resistant strain (in particular quinolone-resistant); for MIC: Klebsiella pneumoniae, A651, read-out: MIC for K. Pneumoniae A-651
How it was run: as §1

E. coli ATCC25922 = conditions: quinolone-sensitive strain; for MIC: Escherichia coli, ATCC25922, read-out: MIC for E. coli ATCC25922
How it was run: as §1

| MIC (P. aeruginosa ATCC27853) [µg/mL] | MIC (K. pneumoniae A-651) [µg/mL] | MIC (E. coli ATCC25922) [µg/mL] | MIC for P. aeruginosa ATCC27853 (P. aeruginosa ATCC27853; quinolone-sensitive strain) [µg/mL] | MIC for K. Pneumoniae A-651 (K. pneumoniae A-651) [µg/mL] | MIC for E. coli ATCC25922 (E. coli ATCC25922) [µg/mL] | SMILES |
| --- | --- | --- | --- | --- | --- | --- |
| 4 (≈ 8.45 µM) | 1 (≈ 2.11 µM) | 0.25 (≈ 0.528 µM) | – | – | – | C[C@@](CCN1Cc2cc(C#Cc3ccc(C(=O)CO)cc3)cn2C1=O)(C(=O)NO)S(C)(=O)=O [Example 45, (R)-N-hydroxy-4-(6-((4-(2-hydroxyacetyl)phenyl)ethynyl)-3-oxo-1H-pyrrolo[1,2-c]imidazol-2(3H)-yl)-2-methyl-2-(methylsulfonyl)butanamide] |
| 4 (≈ 9.51 µM) | 2 (≈ 4.76 µM) | 1 (≈ 2.38 µM) | – | – | – | CN(C)CC#CC#Cc1cc2n(c1)C(=O)N(CC[C@](C)(C(=O)NO)S(C)(=O)=O)C2 [Example 46, (R)-4-(6-(5-(dimethylamino)penta-1,3-diyn-1-yl)-3-oxo-1H-pyrrolo[1,2-c]imidazol-2(3H)-yl)-N-hydroxy-2-methyl-2-(methylsulfonyl)butanamide] |
| 8 (≈ 17.1 µM) | 0.25 (≈ 0.535 µM) | ≤ 0.063 | – | – | – | COC(=O)c1ccc(-c2cc3n(c2)C(=O)N(CC[C@](C)(C(=O)NO)S(C)(=O)=O)C3)c(F)c1 [Example 47, methyl (R)-3-fluoro-4-(2-(4-(hydroxyamino)-3-methyl-3-(methylsulfonyl)-4-oxobutyl)-3-oxo-2,3-dihydro-1H-pyrrolo[1,2-c]imidazol-6-yl)benzoate] |
| 1 (≈ 2.25 µM) | 0.25 (≈ 0.563 µM) | ≤ 0.063 | – | – | – | C[C@@](CCN1Cc2cc(-c3ccc(Cl)cc3F)cn2C1=O)(C(=O)NO)S(C)(=O)=O [Example 48, (R)-4-(6-(4-chloro-2-fluorophenyl)-3-oxo-1H-pyrrolo[1,2-c]imidazol-2(3H)-yl)-N-hydroxy-2-methyl-2-(methylsulfonyl)butanamide] |
| 4 (≈ 8.51 µM) | 0.125 (≈ 0.266 µM) | ≤ 0.063 | – | – | – | CCOc1ccc(-c2cc3n(c2)C(=O)N(CC[C@](C)(C(=O)NO)S(C)(=O)=O)C3)c(Cl)c1 [Example 49, (R)-4-(6-(2-chloro-4-ethoxyphenyl)-3-oxo-1H-pyrrolo[1,2-c]imidazol-2(3H)-yl)-N-hydroxy-2-methyl-2-(methylsulfonyl)butanamide] |
| 2 (≈ 4.39 µM) | ≤ 0.063 | ≤ 0.063 | – | – | – | COc1ccc(-c2cc3n(c2)C(=O)N(CC[C@](C)(C(=O)NO)S(C)(=O)=O)C3)c(Cl)c1 [Example 52, (R)-4-(6-(2-chloro-4-methoxyphenyl)-3-oxo-1H-pyrrolo[1,2-c]imidazol-2(3H)-yl)-N-hydroxy-2-methyl-2-(methylsulfonyl)butanamide] |
| 8 (≈ 16.8 µM) | 0.25 (≈ 0.524 µM) | 0.25 (≈ 0.524 µM) | – | – | – | C[C@@](CCN1Cc2cc(-c3ccc(C(F)(F)F)cc3F)cn2C1=O)(C(=O)NO)S(C)(=O)=O [Example 53, (R)-4-(6-(2-fluoro-4-(trifluoromethyl)phenyl)-3-oxo-1H-pyrrolo[1,2-c]imidazol-2(3H)-yl)-N-hydroxy-2-methyl-2-(methylsulfonyl)butanamide] |
| 1 (≈ 2.25 µM) | 1 (≈ 2.25 µM) | 0.125 (≈ 0.281 µM) | – | – | – | C[C@@](CCN1Cc2cc(-c3ccc(F)c(F)c3F)cn2C1=O)(C(=O)NO)S(C)(=O)=O [Example 54, (R)-N-hydroxy-2-methyl-2-(methylsulfonyl)-4-(3-oxo-6-(2,3,4-trifluorophenyl)-1H-pyrrolo[1,2-c]imidazol-2(3H)-yl)butanamide] |
| 4 (≈ 8.74 µM) | 1 (≈ 2.19 µM) | 0.125 (≈ 0.273 µM) | – | – | – | COc1ccc(-c2cc3n(c2)C(=O)N(CC[C@](C)(C(=O)NO)S(C)(=O)=O)C3)c(F)c1F [Example 55, (R)-4-(6-(2,3-difluoro-4-methoxyphenyl)-3-oxo-1H-pyrrolo[1,2-c]imidazol-2(3H)-yl)-N-hydroxy-2-methyl-2-(methylsulfonyl)butanamide] |
| 2 (≈ 4.47 µM) | 1 (≈ 2.23 µM) | 0.25 (≈ 0.559 µM) | – | – | – | C[C@@](CCN1Cc2cc(C#CC#CC3(CO)CCC3)cn2C1=O)(C(=O)NO)S(C)(=O)=O [Example 56, (R)-N-hydroxy-4-(6-((1-(hydroxymethyl)cyclobutyl)buta-1,3-diyn-1-yl)-3-oxo-1H-pyrrolo[1,2-c]imidazol-2(3H)-yl)-2-methyl-2-(methylsulfonyl)butanamide] |
| – | – | – | 4 | 2 | 1 | C[C@@](CCN1Cc2cc(C#CC#CC3(CO)COC3)cn2C1=O)(C(=O)NO)S(C)(=O)=O [Example 57] |
| 4 (≈ 8.5 µM) | 8 (≈ 17 µM) | 4 (≈ 8.5 µM) | – | – | – | C[C@@](CCN1Cc2cc(C#CC#CCNS(C)(=O)=O)cn2C1=O)(C(=O)NO)S(C)(=O)=O [Example 58, (R)-N-hydroxy-2-methyl-4-(6-(5-(methylsulfonamido)penta-1,3-diyn-1-yl)-3-oxo-1H-pyrrolo[1,2-c]imidazol-2(3H)-yl)-2-(methylsulfonyl)butanamide] |
| 8 (≈ 13.6 µM) | 1 (≈ 1.7 µM) | 1 (≈ 1.7 µM) | – | – | – | CC(C)(C)OC(=O)N1CC(O)(c2ccc(C#Cc3cc4n(c3)C(=O)N(CC[C@](C)(C(=O)NO)S(C)(=O)=O)C4)cc2)C1 [Example 59, tert-butyl (R)-3-hydroxy-3-(4-((2-(4-(hydroxyamino)-3-methyl-3-(methylsulfonyl)-4-oxobutyl)-3-oxo-2,3-dihydro-1H-pyrrolo[1,2-c]imidazol-6-yl)ethynyl)phenyl)azetidine-1-carboxylate] |
| 0.25 (≈ 0.559 µM) | 0.25 (≈ 0.559 µM) | 0.25 (≈ 0.559 µM) | – | – | – | C[C@]1(CO)C[C@@H]1C#CC#Cc1cc2n(c1)C(=O)N(CC[C@](C)(C(=O)NO)S(C)(=O)=O)C2 [Example 61, (R)-N-hydroxy-4-(6-(((1R,2S)-2-(hydroxymethyl)-2-methylcyclopropyl)buta-1,3-diyn-1-yl)-3-oxo-1H-pyrrolo[1,2-c]imidazol-2(3H)-yl)-2-methyl-2-(methylsulfonyl)butanamide] |
| 1 (≈ 2.1 µM) | 4 (≈ 8.39 µM) | 1 (≈ 2.1 µM) | – | – | – | C[C@@](CCN1Cc2cc(C#CC#CC3CN(C(=O)CO)C3)cn2C1=O)(C(=O)NO)S(C)(=O)=O [Example 62, (R)-N-hydroxy-4-(6-((1-(2-hydroxyacetyl)azetidin-3-yl)buta-1,3-diyn-1-yl)-3-oxo-1H-pyrrolo[1,2-c]imidazol-2(3H)-yl)-2-methyl-2-(methylsulfonyl)butanamide] |
| 4 (≈ 8.9 µM) | 4 (≈ 8.9 µM) | 2 (≈ 4.45 µM) | – | – | – | C[C@@](CCN1Cc2cc(C#CC#CCC3(O)COC3)cn2C1=O)(C(=O)NO)S(C)(=O)=O [Example 63, (R)-N-hydroxy-4-(6-(5-(3-hydroxyoxetan-3-yl)penta-1,3-diyn-1-yl)-3-oxo-1H-pyrrolo[1,2-c]imidazol-2(3H)-yl)-2-methyl-2-(methylsulfonyl)butanamide] |
| 4 (≈ 8.63 µM) | 8 (≈ 17.3 µM) | 4 (≈ 8.63 µM) | – | – | – | C[C@@](CCN1Cc2cc(C#CC#CC3(O)CCOCC3)cn2C1=O)(C(=O)NO)S(C)(=O)=O [Example 64, (R)-N-hydroxy-4-(6-((4-hydroxytetrahydro-2H-pyran-4-yl)buta-1,3-diyn-1-yl)-3-oxo-1H-pyrrolo[1,2-c]imidazol-2(3H)-yl)-2-methyl-2-(methylsulfonyl)butanamide] |
| 1 (≈ 2.16 µM) | 8 (≈ 17.3 µM) | 2 (≈ 4.32 µM) | – | – | – | C[C@@](CCN1Cc2cc(C#CC#C[C@@H]3CC[C@@H](N)CO3)cn2C1=O)(C(=O)NO)S(C)(=O)=O [Example 65, (R)-4-(6-(((2S,5R)-5-aminotetrahydro-2H-pyran-2-yl)buta-1,3-diyn-1-yl)-3-oxo-1H-pyrrolo[1,2-c]imidazol-2(3H)-yl)-N-hydroxy-2-methyl-2-(methylsulfonyl)butanamide] |
